This note sets out measurements from ChEMBL document CHEMBL4421718, “Quinoxaline derivatives as gpr6 modulators” (2015).

Experiment [1] concerns the target G-protein coupled receptor 6 (Homo sapiens, UniProt P46095). The experiment in a line: Modulation activity at GPR6 receptor (unknown origin) expressed in CHO-K1 cells assessed as inhibition of constitutive cAMP activity incubated for 45 mins by Perkin Elmer Lance HTRF Ultrac-AMP assay. The class given is functional, cell-based. In general terms: In TR-FRET formats the signal depends on donor and acceptor labels being close together.

Experiment [2] concerns Mus musculus. The experiment is described as follows: Reversal of haloperidol-induced catalepsy in C57BL6 mouse model of Parkinson's disease assessed as reduction in catalepsy intensity index at 10 mg/kg, sc dosed along with haloperidol and measured after 120 mins relative to untreated control. The class given is functional. Also on record: scale not given: the % may be the effect or the level left.

The test system of a further experiment is Rattus norvegicus. The experiment is described as follows: Reversal of haloperidol-induced catalepsy in Sprague-Dawley rat model of Parkinson's disease assessed as reduction in catalepsy intensity index at 10 mg/kg, sc dosed along with haloperidol and measured after 30 mins relative to untreated control. The class given is functional. Also on record: scale not given: the % may be the effect or the level left.

In experiment [3] the test system is Mus musculus. The experiment in a line: Reversal of haloperidol-induced catalepsy in C57BL6 mouse model of Parkinson's disease assessed as reduction in catalepsy intensity index at 10 mg/kg, ip dosed along with haloperidol and measured after 30 mins relative to untreated control. The class given is functional. Also on record: scale not given: the % may be the effect or the level left.

Experiment [4] has as its system Mus musculus. The experiment is described as follows: Reversal of haloperidol-induced catalepsy in C57BL6 mouse model of Parkinson's disease assessed as reduction in catalepsy intensity index at 10 mg/kg, ip dosed along with haloperidol and measured after 120 mins relative to untreated control. The class given is functional. Also on record: scale not given: the % may be the effect or the level left.

In experiment [5] the test system is Mus musculus. The experiment is described as follows: Reversal of haloperidol-induced catalepsy in C57BL6 mouse model of Parkinson's disease assessed as reduction in catalepsy intensity index at 30 mg/kg, ip dosed along with haloperidol and measured after 30 mins relative to untreated control. The class given is functional. Also on record: scale not given: the % may be the effect or the level left.

Experiment [6] relates to Mus musculus. The experiment is described as follows: Reversal of haloperidol-induced catalepsy in C57BL6 mouse model of Parkinson's disease assessed as reduction in catalepsy intensity index at 30 mg/kg, ip dosed along with haloperidol and measured after 120 mins relative to untreated control. The class given is functional. The arrangement: scale not given: the % may be the effect or the level left.

Chain of G-protein coupled receptor 6 (P46095 whole entry): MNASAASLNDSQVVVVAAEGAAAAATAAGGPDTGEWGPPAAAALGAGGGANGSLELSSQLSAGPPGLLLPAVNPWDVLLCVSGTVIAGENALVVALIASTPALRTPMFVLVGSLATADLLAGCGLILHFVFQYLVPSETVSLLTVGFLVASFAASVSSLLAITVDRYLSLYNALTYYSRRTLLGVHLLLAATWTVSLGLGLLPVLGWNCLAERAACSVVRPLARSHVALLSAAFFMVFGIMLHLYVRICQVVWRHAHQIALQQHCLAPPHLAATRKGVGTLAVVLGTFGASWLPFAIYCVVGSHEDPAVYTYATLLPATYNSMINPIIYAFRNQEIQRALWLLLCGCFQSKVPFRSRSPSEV

`COc1ccc(C(=O)N2CCN(c3nc4ccccc4nc3NC3CC3)CC2)cc1Cl`: the IC50 in experiment [1] lay within 10100 to 17700 nM.

For the compound `Cc1cccc(CN2CCN(c3nc4ncccc4nc3NC3CC3)CC2)c1`, in experiment [1], the IC50 was in the range of 840 to 24600 nM.

Regarding `N#Cc1ccc2nc(NC3CC3)c(N3CCC(Cc4ccc(F)cc4F)CC3)nc2c1.O=C(O)C(F)(F)F`, the figures for the Activity with Mus musculus [2] and in the experiment with Rattus norvegicus were 25.1% and 36.9%, respectively.

Take `N#Cc1ccc2nc(NC3CC3)c(N3CCN(Cc4cc(Cl)ccc4Cl)CC3)nc2c1`: the Activity in the experiment with Mus musculus [3] was 42%; in the experiment on Mus musculus [4], 18.8%; with Mus musculus [5] it was 27.4%; in the experiment with Mus musculus [6] it was 15.7%.

For `Clc1ccc(Cl)c(CN2CCN(c3nc4ccccc4nc3NC3CC3)CC2)c1.O=C(O)C(F)(F)F`, the Activity with Mus musculus [5] is reported as 48.1%; with Mus musculus [6] it was 41.4%.

As to `Clc1cccc(Cl)c1CN1CCN(c2nc3ccccc3nc2NC2CC2)CC1.O=C(O)C(F)(F)F`, the Activity is listed as 40.4% in the experiment on Mus musculus [5] and 29.6% in the experiment with Mus musculus [6].

For `Clc1cccc(CN2CCN(c3nc4ccccc4nc3Nc3cccnc3)CC2)c1.O=C(O)C(F)(F)F`, the Activity in the experiment on Mus musculus [5] came to 13.6%; with Mus musculus [6] it was 15.4%.

In the case of `COc1ccc(OC2CCN(c3nc4cnncc4nc3NC3CC3)CC2)c(F)c1`, in experiment [1], the IC50 came out at 36 nM.

As for `Cc1nncc2nc(N3CCC(Oc4ccc(F)cc4F)CC3)c(NC(C)C)nc12`, in experiment [1], the IC50 amounted to 31 nM.

As for `Cc1nnc(C)c2nc(N3CCC(Oc4ccc(F)cc4F)CC3)c(NC(C)C)nc12`, in experiment [1], the IC50 was determined as 60 nM.

Consider `COc1ccc(C(=O)C2CCN(c3nc4c(N5CCOCC5)nccc4nc3NC3CC3)CC2)c(F)c1`, for which the IC50 in experiment [1] is 717 nM.

`Fc1ccc(OC2CCN(c3nc4cnccc4nc3NC3CC3)CC2)c(F)c1`: the IC50 in experiment [1] turned out to be 1100 nM.

Regarding `COc1ccc(OC2CCN(c3nc4c(N5CCOCC5)nccc4nc3NC3CC3)CC2)c(F)c1`, the IC50 in experiment [1] turned out to be 114 nM.

For the compound `COc1ccc(C(=O)C2CCN(c3nc4c(C#N)nccc4nc3NC3CC3)CC2)c(F)c1`, in experiment [1], the IC50 turned out to be 43 nM.

Consider `C[C@H](CO)Nc1nc2ccccc2nc1N1CCN(Cc2cc(Cl)ccc2Cl)CC1`, for which, in experiment [1], the IC50 came out at 1570 nM.

For the compound `CC1CC1Nc1nc2cnncc2nc1N1CCC([C@@H](F)c2ccc(F)cc2F)CC1` (stereo partly specified), the IC50 in experiment [1] is 145 nM.

`CC(C)Nc1nc2ccccc2nc1N1CCC(Oc2ccc(Cl)cc2F)CC1`: in experiment [1], the IC50 was 51 nM.

With `Fc1ccc(F)c(CN2CCN(c3nc4cncc(Cl)c4nc3NC3CC3)CC2)c1`, the IC50 in experiment [1] was found to be 62 nM.

Regarding `Fc1ccc(CN2CCN(c3nc4cnccc4nc3NC3CC3)CC2)c(F)c1`, the IC50 in experiment [1] is 21 nM.

As to `COc1ccc(C(=O)C2CCN(c3nc4cnccc4nc3NC3CC3)CC2)c(F)c1`, in experiment [1], the IC50 came out at 21 nM.

With `CC(C)Nc1nc2ccc(C#N)cc2nc1N1CCC([C@H](F)c2cc(F)ccc2F)CC1`, the IC50 in experiment [1] worked out at 82 nM.

On to `Fc1ccc(CC2CCN(c3nc4cnccc4nc3NC3CC3)CC2)c(F)c1`, for which the IC50 in experiment [1] is 19 nM.

`CC(C)Nc1nc2ccc(C#N)cc2nc1N1CCN(Cc2cc(Cl)ccc2Cl)CC1`: the IC50 in experiment [1] stood at 310 nM.

In the case of `CN1CCN(C(=O)c2cc3nc(NC4CC4)c(N4CCC(C(=O)c5cc(C#N)ccc5F)CC4)nc3cn2)CC1`, the IC50 in experiment [1] amounted to 54 nM.

As usually defined, the IC50 is the midpoint of a concentration-inhibition curve.
